Data from publication PMC6522524 (Nature Communications, 2019).
“And” between values parts separate entries of the source, which are not always exact repeats. Identical values can stand only once. “Also recorded” adds a separate entry of the source. Like-named read-outs stand apart in the source and are kept apart here.

Columns and labels:
[1] = test system: HBV (pHBV1.2× adr) in transfected HepG2 cells; assay: microbe, parasite or virus in culture; format: cell-based, Hepatitis B virus; details: Hepatitis B virus, HepG2, 144 h; HBV1.2× adr transfected cells, 6 days; read-out: IC50, HBV DNA secretion
[2] = target: HBV core protein (pCDNA3-Core, Y118 wild-type) in Huh-7 cells (Hepatitis B virus genotype C, UniProt P0C6H6); assay: cell-based; format: cell-based
[3] = target: T1, Cp149 (truncated HBV core protein) (Hepatitis B virus genotype D subtype ayw, UniProt P03146); assay: biochemical
T1 construct: Cp149 (amino acids 1–149) is a truncated form of the HBV core protein; made in house; host or cells: Escherichia coli

[4] = target: T1, Cp149 (truncated HBV core protein); assay: Electron microscopy of HBV capsid assembly in vitro; format: biochemical
Procedure: The particles were negatively stained with 2% uranyl acetate. Scale bars = 200 nm and 100 nm. TEM magnifications, ×49,000 and ×75,000.
Five microliters of the solution containing the assembled HBV core particles was negatively stained by incubation on a carbon-coated grid for 1 min, followed by washing with water and staining with 2% uranyl acetate for 1 min. The grids were examined with a Tecnai G2 F30 S-TWIN transmission electron microscope.

[5] = in vitro; format: cell-based, human; details: human, Cell viability(%)
Procedure: (§1) Supplementary Fig. 11. Effect of FBS serum iron level on Huh-7, HepG2, and HepG2.2.15 cell
(§2) a Cells were maintained in medium supplemented with 2% FBS or 10% FBS for 1 day and treated with
(§3) After 6 days, cytotoxicity was measured. b Cells were treated with
(§4) the ± SD. *p < 0.05 by unpaired two-tailed Student’s t-test.

[6] = in vitro; format: cell-based, human; details: human, Cell viability(%); remark: listed apart in the source
Procedure: as §1, §2, §3, §4

[7] = test system: HBsAg in HepG2.2.15 cells; assay: Secreted HBsAg ELISA, HepG2.2.15 cells; format: cell-based, Hepatitis B virus
Procedure: Secreted HBsAg (f, i respectively) was quantified by ELISA.
An HBsAg ELISA kit (KA0286, Abnova) was used to quantify HBsAg protein. Briefly, culture media were incubated in individual wells of the capture plates for 2 h. After washing, horseradish peroxidase-labeled rabbit anti-HBV surface antibody was added, followed by incubation for an additional 2 h. The substrate solution was added for 15–60 min and absorbance at 450 nm was measured.

[8] = test system: BALB/c male mice; details: mouse, in vivo, po
Procedure: Five mice were included in each group. Mortality was monitored daily, and bodyweight was measured every other day. On day 28, blood was taken from the orbital sinus, and white blood cells, red blood cells and platelets were counted. Blood urea nitrogen, creatinine, glucose, total bilirubin, total cholesterol, triglyceride, albumin, total protein, aspartate aminotransferase, alanine aminotransferase (ALT), sodium, potassium, and chloride were measured. Urinalysis was performed including urobilinogen, glucose, bilirubin, ketone, specific gravity, blood, pH, protein, nitrate, and leukocytes.
Supplementary Table 3. Mean numbers of blood cells, and parameters for kidney and liver
Data are expressed as means ± standard deviations.
Abbreviations: WBC, white blood cell, AST, aspartate transaminase; ALT, alanine transaminase; ALP,
alkaline phosphatase; BUN, blood urea nitrogen; Na, sodium; K, potassium; Cl. Chloride; S.G, specific

[9] = test system: HBV (genotype D) in PXB mice; details: mouse, in vivo
[10] = test system: patients; details: cited from earlier work
[11] = in vitro; details: human, Cell viability(%)
[12] = in vitro; details: human, Cell viability(%); remark: listed apart in the source
[13] = test system: HBV (genotype D) in HepG2-NTCP cells; assay: In vitro HBV infection model, HepG2-NTCP cells: secreted HBV DNA
Procedure: (§5) To isolate the secreted HBV DNA, culture media were collected and centrifuged at 15,000 × g to remove debris. The medium was diluted 1:1 with phosphate-buffered saline (PBS), and 1 M NaOH solution was added to a final concentration of 0.1 M. The mixture was incubated at 37 °C for 1 h. Protein was denatured by adding 2 M Tris-HCl (pH 7.5) solution to a final concentration of 0.2 M and incubating the mixture at 98 °C for 5 min. The protein precipitate was removed by centrifugation at 15,000 × g, and the supernatant was subjected to PCR with an HBV DNA primer and probe set (Supplementary Table 1). […] To isolate intracellular HBV DNA, the cells were lysed on ice with lysis buffer (50 mM Tris-HCl, pH 7.5, 1 mM EDTA, 1% NP40) for 10 min. After removing cell debris and nuclei by centrifugation at 15,000 × g, the supernatant was treated with micrococcal nuclease (0.25 U per μL, M0247, New England Biolabs) at 37 °C for 1 h. The micrococcal nuclease was then inactivated by adding EGTA to a final concentration of 10 mM. Thereafter intracellular HBV DNA was extracted with a G-spin^TM total kit (17046, Intron). The isolated intracellular HBV DNA was subjected to PCR with an HBV DNA primer and probe set (Supplementary Table 1). cccDNA was isolated by the Hirt extraction method[54]. […]

[14] = test system: HBV (genotype D) in Huh-7-NTCP cells; assay: In vitro HBV infection model, Huh-7-NTCP cells: secreted HBV DNA
Procedure: as §5

[15] = test system: HBV cccDNA in HepG2-NTCP cells; assay: In vitro HBV infection model, HepG2-NTCP cells: intracellular cccDNA
Procedure: HepG2 and Huh-7 cells permanently expressing NTCP were generated by infecting them with an NTCP-encoding recombinant retrovirus and isolating GFP-expressing cells.
The isolated intracellular HBV DNA was subjected to PCR with an HBV DNA primer and probe set (Supplementary Table 1). cccDNA was isolated by the Hirt extraction method[54]. Briefly, the cells were lysed in SDS lysis buffer (50 mM Tris-HCl, pH 8.0, 10 mM EDTA, 150 mM NaCl, 1% SDS), and the lysates were mixed with KCl to a final concentration of 0.5 M. After incubation at 4 °C for 30 min, each lysate was centrifuged and the supernatant was extracted three times with phenol and once with chloroform. The DNA was then recovered by ethanol precipitation, and treated with T5 nuclease (10 U per μg for 0.5 h, M0363, New England Biolabs), and the enzyme was subsequently heat-denatured at 70 °C. The isolated cccDNA was subjected to PCR with a cccDNA primer and probe set (Supplementary Table 1).
HepG2-NTCP and Huh-7-NTCP cells were cultured in 12-well plates with the indicated compound(s) for 4 h, after which the cells were infected with HBV particles (10^7 viral genome equivalent per mL, genotype D) and treated with the indicated compound(s) for another 16 h. […]
Quantitative PCR with an HBV DNA primer and probe set was used to measure intracellular
cccDNA. The data are expressed as means ± SDs. […]

[16] = test system: HBV rcDNA in Huh-7-NTCP cells; assay: In vitro HBV infection model, Huh-7-NTCP cells: intracellular HBV rcDNA
Procedure: as §5

[17] = Huh-7, read-out: Relative intensity (Folds), intracellular capsid, AVERAGE
[18] = Huh-7, read-out: Relative intensity (Folds), intracellular capsid, individual samples

HBV core protein (pCDNA3-Core, Y118 wild-type) in Huh-7 cells, sequence (P0C6H6 whole entry, the tested form may be a part): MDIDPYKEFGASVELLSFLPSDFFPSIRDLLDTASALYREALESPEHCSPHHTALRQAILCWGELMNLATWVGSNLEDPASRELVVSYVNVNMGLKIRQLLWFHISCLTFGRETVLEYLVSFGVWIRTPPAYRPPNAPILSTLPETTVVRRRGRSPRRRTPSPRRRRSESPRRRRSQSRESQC
T1 sequence (P03146 1-149): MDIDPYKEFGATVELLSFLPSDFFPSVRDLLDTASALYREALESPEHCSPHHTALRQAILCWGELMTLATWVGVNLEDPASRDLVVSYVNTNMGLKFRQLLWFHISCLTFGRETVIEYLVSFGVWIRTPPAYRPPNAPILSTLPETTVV

Cc1cc(C2CCCCC2)n(O)c(=O)c1 [Ciclopirox, 6-cyclohexyl-1-hydroxy-4-methyl-2(1 H)-pyridone]
IC50 [1]: 750 ± 150 nM | intracellular HBV capsid assembly [2]: inhibited HBV capsid assembly; also recorded: affected intracellular HBV capsid assembly | activity at 0.1 µM [2, 17]: 92.1% | activity at 0.5 µM [2, 17]: 95.1% | activity at 1 µM [2, 17]: 82.9% | activity at 5 µM [2, 17]: 20.4% | activity at 10 µM [2, 17]: 2.39% | activity at 0.1 µM [2, 18]: 90% | activity at 0.5 µM [2, 18]: 92.6% | activity at 5 µM [2, 18]: 17.9% | activity at 10 µM [2, 18]: 2.39% | IC50 [3]: 445 ± 17 nM | HBV capsid morphology (EM) [4]: HBV capsid morphology was altered | viability at 0.1 µM ([5]; AVERAGE): 99.9% | viability at 0.2 µM ([5]; AVERAGE): 99.8% | viability at 0.5 µM ([5]; AVERAGE): 99.7% | viability at 1 µM ([5]; AVERAGE): 99.7% | viability at 2 µM ([5]; AVERAGE): 98% | viability at 5 µM ([5]; AVERAGE): 96.5% | viability at 10 µM ([5]; AVERAGE): 94.6% | viability at 0.1 µM ([5]; individual samples): 98.5% | viability at 0.2 µM ([5]; individual samples): 98.3% | viability at 0.5 µM ([5]; individual samples): 98.2% | viability at 1 µM ([5]; individual samples): 96.6% | viability at 2 µM ([5]; individual samples): 95.4% | viability at 5 µM ([5]; individual samples): 91.5% | viability at 0.1 µM ([6]; AVERAGE): 100% | viability at 0.2 µM ([6]; AVERAGE): 100% | viability at 0.5 µM ([6]; AVERAGE): 99.6% | viability at 1 µM ([6]; AVERAGE): 99.1% | viability at 2 µM ([6]; AVERAGE): 97.4% | viability at 5 µM ([6]; AVERAGE): 95.2% | viability at 10 µM ([6]; AVERAGE): 93.6% | viability at 0.1 µM ([6]; individual samples): 99.9% | viability at 0.2 µM ([6]; individual samples): 99.6% | viability at 0.5 µM ([6]; individual samples): 99.4% | viability at 1 µM ([6]; individual samples): 98.9% | viability at 2 µM ([6]; individual samples): 97% | viability at 5 µM ([6]; individual samples): 93% | viability at 10 µM ([6]; individual samples): 93.5% | HBsAg production [7]: no effect | Cl ([8]; 1 mg/kg/day): 100.0 ± 1.0 mmol/L | Cl ([8]; 5 mg/kg/day): 99.0 ± 1.0 mmol/L | Serum HBV DNA, AVERAGE [9]: 6.24 log copies/mL | Serum HBV DNA, individual samples [9]: 6.248 log copies/mL and 5.238 log copies/mL and 7.238 log copies/mL | cccDNA, AVERAGE [9]: 0.2214 log copies/cell | cccDNA, individual samples [9]: 0.22 log copies/cell and 0.29 log copies/cell and 0.16 log copies/cell | HBV core protein levels in the liver ([9]; po): significantly reduced HBV core protein levels in the liver | HBeAg levels ([9]; po): significantly decreased HBeAg levels | Serum ALT levels ([9]; po): decreased | intrahepatic cccDNA ([9]; po): significantly reduced the amount of intrahepatic cccDNA | serum HBV DNA levels ([9]; po): lowered serum HBV DNA levels significantly | serum HBV DNA levels, combined with TDF ([9]; po): these effects were enhanced when it was combined with TDF | Dose-limiting gastrointestinal toxicities ([10]; 80 mg per m^2 four times daily, oral): Dose-limiting gastrointestinal toxicities were observed | anti-apoptotic gene expression in peripheral blood cells ([10]; once daily >10 mg per m^2, oral): suppressed anti-apoptotic gene expression in peripheral blood cells | viability at 0.1 µM ([11]; AVERAGE): 98.8% | viability at 0.2 µM ([11]; AVERAGE): 102% | viability at 0.5 µM ([11]; AVERAGE): 97.7% | viability at 1 µM ([11]; AVERAGE): 98.7% | viability at 2 µM ([11]; AVERAGE): 99.1% | viability at 0.1 µM ([11]; individual samples): 98.8% | viability at 0.2 µM ([11]; individual samples): 102% | viability at 0.5 µM ([11]; individual samples): 97.6% | viability at 1 µM ([11]; individual samples): 98.6% | viability at 2 µM ([11]; individual samples): 99% | viability at 0.1 µM ([12]; AVERAGE): 99.9% | viability at 0.2 µM ([12]; AVERAGE): 99.2% | viability at 0.5 µM ([12]; AVERAGE): 99.4% | viability at 1 µM ([12]; AVERAGE): 99.9% | viability at 2 µM ([12]; AVERAGE): 99.4% | viability at 5 µM ([12]; AVERAGE): 99.2% | viability at 10 µM ([12]; AVERAGE): 99.8% | viability at 0.1 µM ([12]; individual samples): 98.9% | viability at 0.2 µM ([12]; individual samples): 95.7% | viability at 0.5 µM ([12]; individual samples): 98.9% | viability at 1 µM ([12]; individual samples): 99.9% | viability at 2 µM ([12]; individual samples): 99.6% | viability at 5 µM ([12]; individual samples): 97.6% | viability at 10 µM ([12]; individual samples): 99.9% | secretion of HBV DNA [13]: dropped markedly | secretion of HBV DNA [14]: dropped markedly | cccDNA levels [15]: dropped markedly | intracellular relaxed circular DNA levels [16]: dropped markedly
